Active and inactive are the calls of the source. No rule for the calls is given here.

This data set concerns CCRIS mutagenicity, Ames/micronucleus/aberration tests. As to the kind of experiment: CCRIS mutagenicity studies.
Where [1] appears, read: Test System: AMES SALMONELLA TYPHIMURIUM, Strain/Indicator: TA98, Metabolic Activation: NONE, Method: STANDARD PLATE.
Where [2] appears, read: Test System: AMES SALMONELLA TYPHIMURIUM, Strain/Indicator: TA98, Metabolic Activation: RAT, LIVER, S-9, AROCLOR 1254, Method: STANDARD PLATE.
The mark [3] stands for this setting: Test System: AMES SALMONELLA TYPHIMURIUM, Strain/Indicator: TA100, Metabolic Activation: NONE, Method: STANDARD PLATE.
Setting [4] is: Test System: AMES SALMONELLA TYPHIMURIUM, Strain/Indicator: TA100, Metabolic Activation: RAT, LIVER, S-9, AROCLOR 1254, Method: STANDARD PLATE.

On to `S=C([S-])NCCNC(=S)[S-].[Zn+2]`, for which the mutagenic call by setting is: under setting [1], “inactive; negative”; under setting [2], “inactive; negative”; under setting [3], “inactive; negative”; under setting [4], “inactive; negative”; (Test System: AMES SALMONELLA TYPHIMURIUM, Strain/Indicator: TA1535, Metabolic Activation: NONE, Method: STANDARD PLATE) “inactive; negative”; (Test System: AMES SALMONELLA TYPHIMURIUM, Strain/Indicator: TA1535, Metabolic Activation: RAT, LIVER, S-9, AROCLOR 1254, Method: STANDARD PLATE) “inactive; negative”. In addition, the mutagenic call is “inactive; negative” (Test System: AMES SALMONELLA TYPHIMURIUM, Strain/Indicator: TA1537, Metabolic Activation: NONE, Method: STANDARD PLATE); “inactive; negative” (Test System: AMES SALMONELLA TYPHIMURIUM, Strain/Indicator: TA1537, Metabolic Activation: RAT, LIVER, S-9, AROCLOR 1254, Method: STANDARD PLATE); “inactive; negative” (Test System: E. COLI, Strain/Indicator: WP2, Metabolic Activation: NONE, Method: STANDARD PLATE); “inactive; negative” (Test System: E. COLI, Strain/Indicator: WP2, Metabolic Activation: RAT, LIVER, S-9, AROCLOR 1254, Method: STANDARD PLATE).
Turning to `CC(=O)N(Cl)c1ccc2c(c1)Cc1ccccc1-2`, the mutagenic call under setting [2] was “active; positive”.
Regarding `Clc1c2ccccc2cc2ccccc12`, the mutagenic call is “active; positive” under setting [2] and “active; positive” under setting [4].
Consider `CC(C)=C(Cl)C=O`, for which the mutagenic call is, setting by setting: (Test System: AMES SALMONELLA TYPHIMURIUM, Strain/Indicator: TA98, Metabolic Activation: NONE, Method: PREINCUBATION, LIQUID INCUBATION) “inactive; negative”; (Test System: AMES SALMONELLA TYPHIMURIUM, Strain/Indicator: TA100, Metabolic Activation: NONE, Method: LIQUID INCUBATION) “active; positive”; (Test System: AMES SALMONELLA TYPHIMURIUM, Strain/Indicator: TA100, Metabolic Activation: NONE, Method: PREINCUBATION, LIQUID INCUBATION) “active; positive”; (Test System: AMES SALMONELLA TYPHIMURIUM, Strain/Indicator: TA1538, Metabolic Activation: NONE, Method: PREINCUBATION, LIQUID INCUBATION) “inactive; negative”.
`CC(=O)Nc1ccc(NC(C)=O)cc1`: the mutagenic call is, setting by setting: (Test System: Ames Salmonella typhimurium, Strain/Indicator: TA98, Metabolic Activation: None, Method: Standard Plate) “inactive; negative”; (Test System: Ames Salmonella typhimurium, Strain/Indicator: TA100, Metabolic Activation: None, Method: Standard Plate) “inactive; negative”; (Test System: Ames Salmonella typhimurium, Strain/Indicator: TA102, Metabolic Activation: None, Method: Standard Plate) “inactive; negative”; (Test System: Ames Salmonella typhimurium, Strain/Indicator: TA1535, Metabolic Activation: None, Method: Standard Plate) “inactive; negative”; (Test System: Ames Salmonella typhimurium, Strain/Indicator: TA1537, Metabolic Activation: None, Method: Standard Plate) “inactive; negative”.
For `Nc1ccc2nc3ccccn3c2n1`, the mutagenic call by setting is: (Test System: AMES SALMONELLA TYPHIMURIUM, Strain/Indicator: TA97, Metabolic Activation: NONE, Method: STANDARD PLATE) “inactive; negative”; (Test System: AMES SALMONELLA TYPHIMURIUM, Strain/Indicator: TA97, Metabolic Activation: RAT, LIVER, S-9, AROCLOR 1254, Method: STANDARD PLATE) “active; positive”; (Test System: AMES SALMONELLA TYPHIMURIUM, Strain/Indicator: TA98, Metabolic Activation: MONKEY, LIVER, S-9, Method: PREINCUBATION) “active; positive”; (Test System: AMES SALMONELLA TYPHIMURIUM, Strain/Indicator: TA98, Metabolic Activation: MOUSE, LIVER, MICROSOMES, TCDD, Method: STANDARD PLATE) “active; positive”; (Test System: AMES SALMONELLA TYPHIMURIUM, Strain/Indicator: TA98, Metabolic Activation: MOUSE, LIVER, MICROSOMES, Method: STANDARD PLATE) “inactive; negative”; under setting [1], “inactive; negative”. In addition, the mutagenic call reads like this: (Test System: AMES SALMONELLA TYPHIMURIUM, Strain/Indicator: TA98, Metabolic Activation: RAT, LIVER, CYTOSOL, AROCLOR 1254, Method: STANDARD PLATE) “inactive; negative”; (Test System: AMES SALMONELLA TYPHIMURIUM, Strain/Indicator: TA98, Metabolic Activation: RAT, LIVER, MICROSOMES, AROCLOR 1254, Method: STANDARD PLATE) “inactive; negative”; (Test System: AMES SALMONELLA TYPHIMURIUM, Strain/Indicator: TA98, Metabolic Activation: RAT, LIVER, S-9, AROCLOR 1254, Method: PREINCUBATION) “active; positive”; under setting [2], “active; positive”; under setting [3], “inactive; negative”; (Test System: AMES SALMONELLA TYPHIMURIUM, Strain/Indicator: TA100, Metabolic Activation: RAT, LIVER, S-9, AROCLOR 1254, Method: PREINCUBATION) “active; positive”. The mutagenic call is, setting by setting: under setting [4], “active; positive”; (Test System: AMES SALMONELLA TYPHIMURIUM, Strain/Indicator: TA100, Metabolic Activation: RAT, LIVER, S-9, N-BENZYLIMIDAZOLE, Method: PREINCUBATION) “active; positive”; (Test System: AMES SALMONELLA TYPHIMURIUM, Strain/Indicator: YG1019, Metabolic Activation: RAT LIVER S-9, AROCLOR, Method: PREINCUBATION) “active; positive”.
For the compound `Nc1c(N=Nc2ccc(-c3ccc(NN=C4C=CC(=O)C=C4)cc3)cc2)c(S(=O)(=O)O)cc2c1C(=O)/C(=N/Nc1ccccc1)C(S(=O)(=O)O)=C2`, the mutagenic call is “inactive; negative” (Test System: AMES SALMONELLA TYPHIMURIUM, Strain/Indicator: TA98, Metabolic Activation: HAMSTER, LIVER, S-9, AROCLOR 1254 (10%), Method: PREINCUBATION); “inactive; negative” (Test System: AMES SALMONELLA TYPHIMURIUM, Strain/Indicator: TA98, Metabolic Activation: NONE, Method: PREINCUBATION); “inactive; negative” under setting [1]; “inactive; negative” (Test System: AMES SALMONELLA TYPHIMURIUM, Strain/Indicator: TA98, Metabolic Activation: RAT, LIVER, S-9, AROCLOR 1254 (10%), Method: PREINCUBATION); “inactive; negative” (Test System: AMES SALMONELLA TYPHIMURIUM, Strain/Indicator: TA98, Metabolic Activation: RAT, LIVER, S-9, PHENOBARBITAL, Method: STANDARD PLATE); “inactive; negative” (Test System: AMES SALMONELLA TYPHIMURIUM, Strain/Indicator: TA100, Metabolic Activation: HAMSTER, LIVER, S-9, AROCLOR 1254 (10%), Method: PREINCUBATION). The mutagenic call by setting is: (Test System: AMES SALMONELLA TYPHIMURIUM, Strain/Indicator: TA100, Metabolic Activation: NONE, Method: PREINCUBATION) “inactive; negative”; under setting [3], “inactive; negative”; (Test System: AMES SALMONELLA TYPHIMURIUM, Strain/Indicator: TA100, Metabolic Activation: RAT, LIVER, S-9, AROCLOR 1254 (10%), Method: PREINCUBATION) “inactive; negative”; (Test System: AMES SALMONELLA TYPHIMURIUM, Strain/Indicator: TA100, Metabolic Activation: RAT, LIVER, S-9, PHENOBARBITAL, Method: STANDARD PLATE) “inactive; negative”; (Test System: AMES SALMONELLA TYPHIMURIUM, Strain/Indicator: TA1535, Metabolic Activation: HAMSTER, LIVER, S-9, AROCLOR 1254 (10%), Method: PREINCUBATION) “active; positive”; (Test System: AMES SALMONELLA TYPHIMURIUM, Strain/Indicator: TA1535, Metabolic Activation: NONE, Method: PREINCUBATION) “inactive; negative”. Also, the mutagenic call reads like this: (Test System: AMES SALMONELLA TYPHIMURIUM, Strain/Indicator: TA1535, Metabolic Activation: RAT LIVER, S-9, AROCLOR 1254 (10%), Method: PREINCUBATION) “inactive; negative”; (Test System: AMES SALMONELLA TYPHIMURIUM, Strain/Indicator: TA1535, Metabolic Activation: RAT, LIVER, S-9, AROCLOR 1254 (10%), Method: PREINCUBATION) “active; positive”; (Test System: AMES SALMONELLA TYPHIMURIUM, Strain/Indicator: TA1537, Metabolic Activation: HAMSTER, LIVER, S-9, AROCLOR 1254 (10%), Method: PREINCUBATION) “inactive; negative”; (Test System: AMES SALMONELLA TYPHIMURIUM, Strain/Indicator: TA1537, Metabolic Activation: NONE, Method: PREINCUBATION) “inactive; negative”; (Test System: AMES SALMONELLA TYPHIMURIUM, Strain/Indicator: TA1537, Metabolic Activation: RAT, LIVER, S-9, AROCLOR 1254 (10%), Method: PREINCUBATION) “inactive; negative”.
On to `Cc1ccc2cc3c4c(ccc3c3c2c1C[C@H]3O)[C@H](O)[C@@H](O)C=C4`, for which the mutagenic call (Test System: CHINESE HAMSTER V-79, Strain/Indicator: V-79/8-AZAGUANINE, Metabolic Activation: RAT, LIVER, S-9, AROCLOR, Method: STANDARD PLATE) was “active; positive”.
